Laboratory results as given in the NIST ThermoML archive (doi:10.1007/s10765-005-5567-5).

Assay: mn = molality of the nth substance listed, in mol/kg
Settings: Liquid; for thermal conductivity: Coaxial cylinder method; for viscosity: Capillary tube (Ostwald / Ubbelohde) method

O=S(=O)([O-])[O-].[K+].[K+] [potassium sulfate] + O
Settings	thermal conductivity [W/m/K]	viscosity [mPa·s]
298 K, 100 kPa, m1 = 0.499	0.602	–
298 K, 10000 kPa, m1 = 0.499	0.607	–
298 K, 30000 kPa, m1 = 0.499	0.616	–
298.15 K, 0.1 kPa, m1 = 0.0658	–	0.9039
298.15 K, 0.1 kPa, m1 = 0.2055	–	0.931
298.15 K, 0.1 kPa, m1 = 0.305	–	0.9616
298.15 K, 0.1 kPa, m1 = 0.407	–	0.9825
298.15 K, 10 kPa, m1 = 0.0658	–	0.9023
298.15 K, 10 kPa, m1 = 0.2055	–	0.9297
298.15 K, 10 kPa, m1 = 0.305	–	0.9618
298.15 K, 10 kPa, m1 = 0.407	–	0.9823
298.15 K, 20 kPa, m1 = 0.0658	–	0.904
298.15 K, 20 kPa, m1 = 0.2055	–	0.931
298.15 K, 20 kPa, m1 = 0.305	–	0.9615
298.15 K, 20 kPa, m1 = 0.407	–	0.9826
298.15 K, 30 kPa, m1 = 0.0658	–	0.9053
298.15 K, 30 kPa, m1 = 0.2055	–	0.9319
298.15 K, 30 kPa, m1 = 0.305	–	0.964
298.15 K, 30 kPa, m1 = 0.407	–	0.983
298.4 K, 100 kPa, m1 = 0.239	0.605	–
298.4 K, 10000 kPa, m1 = 0.239	0.61	–
298.4 K, 30000 kPa, m1 = 0.239	0.62	–
311.65 K, 0.1 kPa, m1 = 0.2055	–	0.7107
311.65 K, 10 kPa, m1 = 0.2055	–	0.7122
311.65 K, 20 kPa, m1 = 0.2055	–	0.7133
311.65 K, 30 kPa, m1 = 0.2055	–	0.7151
312.25 K, 0.1 kPa, m1 = 0.407	–	0.7386
312.25 K, 10 kPa, m1 = 0.407	–	0.7414
312.25 K, 20 kPa, m1 = 0.407	–	0.7439
312.25 K, 30 kPa, m1 = 0.407	–	0.7452
312.55 K, 0.1 kPa, m1 = 0.305	–	0.7172
312.55 K, 10 kPa, m1 = 0.305	–	0.7194
312.55 K, 20 kPa, m1 = 0.305	–	0.7207
312.55 K, 30 kPa, m1 = 0.305	–	0.7227
313 K, 100 kPa, m1 = 0.239	0.626	–
313 K, 10000 kPa, m1 = 0.239	0.631	–
313 K, 30000 kPa, m1 = 0.239	0.641	–
313.1 K, 100 kPa, m1 = 0.782	0.618	–
313.1 K, 10000 kPa, m1 = 0.782	0.623	–
313.1 K, 30000 kPa, m1 = 0.782	0.632	–
313.55 K, 0.1 kPa, m1 = 0.0658	–	0.6609
313.55 K, 10 kPa, m1 = 0.0658	–	0.6613
313.55 K, 20 kPa, m1 = 0.0658	–	0.665
313.55 K, 30 kPa, m1 = 0.0658	–	0.667
313.6 K, 100 kPa, m1 = 0.499	0.622	–
313.6 K, 10000 kPa, m1 = 0.499	0.627	–
313.6 K, 30000 kPa, m1 = 0.499	0.637	–
323.15 K, 0.1 kPa, m1 = 0.2055	–	0.5819
323.15 K, 0.1 kPa, m1 = 0.305	–	0.5972
323.15 K, 10 kPa, m1 = 0.2055	–	0.5837
323.15 K, 10 kPa, m1 = 0.305	–	0.5991
323.15 K, 20 kPa, m1 = 0.2055	–	0.5858
323.15 K, 20 kPa, m1 = 0.305	–	0.6019
323.15 K, 30 kPa, m1 = 0.2055	–	0.5885
323.15 K, 30 kPa, m1 = 0.305	–	0.6045
323.25 K, 0.1 kPa, m1 = 0.0658	–	0.5568
323.25 K, 10 kPa, m1 = 0.0658	–	0.5586
323.25 K, 20 kPa, m1 = 0.0658	–	0.5601
323.25 K, 30 kPa, m1 = 0.0658	–	0.5617
323.35 K, 0.1 kPa, m1 = 0.407	–	0.6109
323.35 K, 10 kPa, m1 = 0.407	–	0.613
323.35 K, 20 kPa, m1 = 0.407	–	0.6159
323.35 K, 30 kPa, m1 = 0.407	–	0.618
333.3 K, 100 kPa, m1 = 0.782	0.64	–
333.3 K, 10000 kPa, m1 = 0.782	0.645	–
333.3 K, 30000 kPa, m1 = 0.782	0.655	–
333.6 K, 100 kPa, m1 = 0.239	0.649	–
333.6 K, 10000 kPa, m1 = 0.239	0.654	–
333.6 K, 30000 kPa, m1 = 0.239	0.664	–
333.7 K, 100 kPa, m1 = 0.499	0.645	–
333.7 K, 10000 kPa, m1 = 0.499	0.65	–
333.7 K, 30000 kPa, m1 = 0.499	0.66	–
348.15 K, 0.1 kPa, m1 = 0.407	–	0.4271
348.15 K, 10 kPa, m1 = 0.407	–	0.4316
348.15 K, 20 kPa, m1 = 0.407	–	0.4354
348.15 K, 30 kPa, m1 = 0.407	–	0.438
348.25 K, 0.1 kPa, m1 = 0.305	–	0.4147
348.25 K, 10 kPa, m1 = 0.305	–	0.4182
348.25 K, 20 kPa, m1 = 0.305	–	0.4217
348.25 K, 30 kPa, m1 = 0.305	–	0.4248
348.45 K, 0.1 kPa, m1 = 0.0658	–	0.3842
348.45 K, 10 kPa, m1 = 0.0658	–	0.3869
348.45 K, 20 kPa, m1 = 0.0658	–	0.3912
348.45 K, 30 kPa, m1 = 0.0658	–	0.3963
348.95 K, 0.1 kPa, m1 = 0.2055	–	0.3988
348.95 K, 10 kPa, m1 = 0.2055	–	0.402
348.95 K, 20 kPa, m1 = 0.2055	–	0.4048
348.95 K, 30 kPa, m1 = 0.2055	–	0.4076
352.9 K, 100 kPa, m1 = 0.499	0.66	–
352.9 K, 100 kPa, m1 = 0.782	0.654	–
352.9 K, 10000 kPa, m1 = 0.499	0.665	–
352.9 K, 10000 kPa, m1 = 0.782	0.659	–
352.9 K, 30000 kPa, m1 = 0.499	0.675	–
352.9 K, 30000 kPa, m1 = 0.782	0.67	–
353.3 K, 100 kPa, m1 = 0.239	0.665	–
353.3 K, 10000 kPa, m1 = 0.239	0.67	–
353.3 K, 30000 kPa, m1 = 0.239	0.679	–
363 K, 100 kPa, m1 = 0.499	0.666	–
363 K, 10000 kPa, m1 = 0.499	0.671	–
363 K, 30000 kPa, m1 = 0.499	0.68	–
363.4 K, 100 kPa, m1 = 0.239	0.67	–
363.4 K, 100 kPa, m1 = 0.782	0.66	–
363.4 K, 10000 kPa, m1 = 0.239	0.675	–
363.4 K, 10000 kPa, m1 = 0.782	0.665	–
363.4 K, 30000 kPa, m1 = 0.239	0.685	–
363.4 K, 30000 kPa, m1 = 0.782	0.675	–
365.45 K, 10 kPa, m1 = 0.2055	–	0.3303
365.45 K, 20 kPa, m1 = 0.2055	–	0.3339
365.45 K, 30 kPa, m1 = 0.2055	–	0.3363
365.95 K, 10 kPa, m1 = 0.305	–	0.3396
365.95 K, 20 kPa, m1 = 0.305	–	0.3421
365.95 K, 30 kPa, m1 = 0.305	–	0.346
372.55 K, 10 kPa, m1 = 0.407	–	0.3265
372.55 K, 20 kPa, m1 = 0.407	–	0.33
372.55 K, 30 kPa, m1 = 0.407	–	0.3329
376.65 K, 10 kPa, m1 = 0.0658	–	0.2805
376.65 K, 20 kPa, m1 = 0.0658	–	0.2846
376.65 K, 30 kPa, m1 = 0.0658	–	0.2884
393.1 K, 10000 kPa, m1 = 0.499	0.679	–
393.1 K, 10000 kPa, m1 = 0.782	0.672	–
393.1 K, 30000 kPa, m1 = 0.499	0.69	–
393.1 K, 30000 kPa, m1 = 0.782	0.685	–
393.5 K, 10000 kPa, m1 = 0.239	0.684	–
393.5 K, 30000 kPa, m1 = 0.239	0.695	–
396.35 K, 10 kPa, m1 = 0.407	–	0.2605
396.35 K, 20 kPa, m1 = 0.407	–	0.2628
396.35 K, 30 kPa, m1 = 0.407	–	0.2667
396.65 K, 10 kPa, m1 = 0.2055	–	0.2435
396.65 K, 20 kPa, m1 = 0.2055	–	0.2464
396.65 K, 30 kPa, m1 = 0.2055	–	0.2492
397.25 K, 10 kPa, m1 = 0.305	–	0.2503
